What was measured:
Format in all cases: in vivo
[1] = test system: male Sprague-Dawley rats; experiment: Stress induced hyperthermia (SIH) assay; set-up: key: −: No change in Delta T ([…]T); +: Significant decrease in Delta T ([…]T) (P < 0.05 vs vehicle)
Excerpt: Stress-induced hyperthermia (SIH), mediated by the autonomic nervous system, is well known to occur prior to and during exposure to stress and/or anxiety-inducing situations. In many human anxiety disorders, it occurs as an integral part of the pathology and is often considered a representative symptom of the disease, e.g. in generalized anxiety disorder as defined in DSM-IV. In rodents, acute administration of anxiolytic drugs, such as buspirone or chlordiazepoxide (CDP), are known to reduce the SIH response to stressors such as handling, noise, heat, novelty, or pain. The test involves two measures of rectal temperature repeated in the same animal with a 10-minute interval. On the day prior to testing, male Sprague-Dawley rats from Envigo (n=10 per group) were brought to the experimental room approximately one hour before scheduled lights out and singly housed overnight with food and water ad libitum. On the morning of the experiment, animals were first injected with either vehicle or test compound orally by gavage, or CDP (10 mg/kg, i.p.). One hour following injection, each animal was removed from the holding cage and held in a supine position while the rectal temperature was measured by slowly inserting a rectal probe into the animal's rectum at a length of approximately 0.5 cm. The rectal probe was attached to a PhysiTemp digital thermometer (Fisher Scientific) which provides temperature readings at 0.1° C. accuracy. The probe remained inside the animal for approximately 5 seconds or until body temperature reaches stability. This temperature was recorded as the baseline rectal temperature (T1). The animal was immediately placed back to the holding cage and after a 10-min interval the second rectal temperature (T2) was taken using the same procedure as in measuring T1. Before each insertion, the rectal probe was cleaned with an alcohol pad and lubricated with sterile K-Y jelly. All SIH studies were conducted between 8:00-11:00 a.m. The SIH response was calculated as the difference in temperature between the second and first temperature reading (Delta T, […]T). A reduction in […]T relative to the vehicle condition indicates an anxiolytic drug-like response.

[2] = test system: compound-treated mice; experiment: Neuropharmacological assay (SmartCube): behavioral activity signature and minimal effective dose; settings: for Potency: minimal effective dose (MED), binned: MED = dose having 50% or more total activity; for AD: ADHD (probability of activity signature) / AG: analgesic (probability of activity signature) / AX: anxiolytic (probability of activity signature) / CE: cognitive enhancer (probability of activity signature) / DP: anti-depressant (probability of activity signature) / MS: mood stabilizer (probability of activity signature) / PS: anti-psychotic (probability of activity signature) / SD: sedative hypnotic (probability of activity signature) / UN: uncharacterized CNS activity (probability of activity signature): i.p. 15 min before test, most efficacious dose(s)
Outline: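 Video-recorded behavior is compared algorithmically against a reference-compound database, yielding class probabilities (best dose reported). Compounds given i.p. in NMP/PEG/propylene glycol 15 min pre-test at 3 doses; potency as MED, the dose (mpk, range usually 0.3–30) reaching ≥50% total activity.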

[3] = test system: Male C57Bl/6J mice; experiment: Marble burying test; set-up: key: −: No reduction in number of marbles buried; +: Significant reduction in number of marbles buried (P < 0.05 vs vehicle)
Description: The marble burying assay is used to evaluate the anxiolytic activity of a test compound. After placement in a novel cage containing glass marbles, mice will bury the marbles. Acute administration of anxiolytic agents, as well as antidepressants, decrease this activity at non-sedating doses. Male C57Bl/6J mice from Jackson Laboratories were used in this study and were acclimatized to the experimental room for at least 1 hour prior to testing. Mice (n=10 per group) were administered sterile water or test compound intraperitoneally (i.p.) or orally by gavage (p.o.), or the positive control chlordiazepoxide (15 mg/kg, i.p.), in 10 mL/kg injection volumes, and returned to their home cages for a 30-minute pretreatment period. The mice were then placed individually in clean cages, containing hard wood bedding and twenty black marbles placed in spaced rows of 4×5. After a 30-minute test session, the number of buried marbles was counted. A marble was considered buried if it was pushed at least two thirds into the bedding. Locomotor activity was monitored by measuring the distance traveled using an overhead camera and Video Tracker Software (ViewPoint Life Sciences Software, France). A reduction in the number of marbles buried relative to the vehicle condition indicates an anxiolytic drug-like effect.

[4] = test system: Adult male AJ mice; experiment: Tail suspension test (TST); set-up: key: −: No decrease in Mean Total Time Immobile; +: Significant decrease in Mean Total Time Immobile (P < 0.05 vs vehicle); settings: 3 mg/kg PO
Excerpt: The tail suspension test (TST) is a rodent screening test for potential (human) antidepressant drugs. It is based on the assumption that an animal will actively try to escape an aversive (stressful) stimulus. If escape is impossible, the animal will eventually stop trying (“give up”). In the TST, a mouse is suspended by the tail so that its body dangles in the air, head downward. Mice initially struggle to face upward and climb to a solid surface. When the animal stops struggling and hangs immobile it is considered to have “given up”. Shorter periods of immobility are characteristic of antidepressant-like activity. Accordingly, longer periods of immobility are considered indicative of a depressive-like state. It has been shown that treatment with an antidepressant drug will decrease the time the animal spends immobile. See generally L. Steru et al., Psychopharmacology (Berl). 1985; 85(3):367-70; B. Thierry et al., Psychopharmacology 1986; 90:284-85.
Adult male AJ mice from Jackson Laboratories received vehicle (sterile water) or test compound orally by gavage, or the positive control desipramine (20 mg/kg, i.p.), in 10 mL/kg injection volumes, 30 min before being subjected to the Tail Suspension Test. In this test, mice are placed in the Tail Suspension chambers (white polyvinylchloride cubicles measuring 33×33×31.75 cm Med Associates, Inc. St. Albans, Vt.) by a piece of transparent (Scotch®) tape attached to the tail, from about the mid-tail, with approximately 2 cm of tape past the end of the tail for 10 min during which the time spent immobile is measured. A reduction in total time immobile relative to the vehicle condition indicates an antidepressant drug-like response.

[5] = test system: Male C57Bl/6J mice; experiment: Prepulse inhibition of startle (PPI); set-up: key: −: No change in PPI; +: Significant increase in PPI at one pre-pulse intensity (P < 0.05 vs vehicle); ++: Significant increase in PPI at two pre-pulse intensities (P < 0.05 vs vehicle); +++: Significant increase in PPI at three pre-pulse intensities (P < 0.05 vs vehicle); settings: 3 mg/kg PO
Excerpt: The acoustic startle is an unconditioned reflex response to an external auditory stimulus. Prepulse inhibition of startle (PPI) refers to the reduction in the startle response caused by the presentation of a low-intensity auditory stimulus prior to the startle stimulus. The PPI paradigm is used for the study of schizophrenia and antipsychotic action due to the similarities between the results from human and rodent studies. PPI has been used as a tool for the assessment of deficiencies in sensory-motor gating observed in schizophrenia and to screen for potential antipsychotic drugs. Various psychotomimetic drugs, such as phencyclidine (PCP), can disrupt PPI. In mice, antipsychotic drugs such as haloperidol can increase PPI and clozapine can reverse the disruption of PPI induced by PCP.
Male C57Bl/6J mice from Jackson Laboratories were placed in the PPI chambers (Med Associates) for a 5 min session of white noise (70 dB) habituation. After the habituation period, the test session was initiated. The session started with a habituation block of 6 presentations of the startle stimulus alone, followed by 10 PPI blocks, each of which consisted of 6 different types of trials. Trial types were: ‘null’ (no stimuli), ‘startle’ (120 dB), ‘startle plus prepulse’ (4, 8, and 12 dB over background noise, i.e., 74, 78, or 82 dB) and ‘prepulse’ (82 dB). Trial types were presented in a random order within each block. Each trial started with a 50 ms stimulus-free period during which baseline movements were recorded. This was followed by a subsequent 20 ms period during which the prepulse stimulus was presented and responses to the prepulse measured. After a further 100 ms period, the startle stimulus was presented for 40 ms and responses recorded for 100 ms from startle onset. Responses were sampled every ms. The inter-trial interval was variable with an average of 15 s (range from 10 to 20 s). In ‘startle’ trials, the basic auditory startle response was measured. The basic startle response was calculated as the mean startle response of all ‘startle’ trials (i.e., excluding the first habituation block). In ‘startle plus prepulse’ trials, the degree of inhibition of the normal startle was calculated and expressed as a percentage of the basic startle response.
Mice were treated with vehicle or test compound orally by gavage, or haloperidol (1 mg/kg, i.p.), in 10 mL/kg injection volumes, 30 min prior to PPI test. The PPI enclosures were cleaned following each test. An increase in the percent PPI relative to the vehicle condition indicates an antipsychotic drug-like response.

[6] = test system: Male C57Bl/6J mice; experiment: Amphetamine induced hyperlocomotion assay; set-up: key: #: Significant increase in total distance traveled (P < 0.05 vs vehicle + AMPH group); −: No change in total distance traveled; Significant decrease in total distance traveled (P < 0.05 vs vehicle + AMPH group); settings: 3 mg/kg PO Compound + AMPH
Description: Psychostimulants such as amphetamine (AMPH) are frequently used to induce or mimic a manic-like or psychotic-like state. AMPH administration to rodents increases horizontal locomotion, vertical rearing and repetitive stereotyped behaviors, and typical antipsychotic drugs, such as haloperidol, can reduce these behaviors. The antimanic/antipsychotic-like effects of test compounds were evaluated in male C57Bl/6J mice from Jackson Laboratories Mice were acclimatized to the experimental room for at least 1 hour prior to testing. The mice (n=10 per group) were administered vehicle or test compound orally by gavage (10 mL/kg injection volume) and placed individually in the novel open field (OF) chambers (Med Associates) for 30 minutes of baseline activity measurement. Mice were then injected with either water or AMPH (4 mg/kg, i.p., 10 mL/kg) and placed back in the same individual OF chambers for a 60-minute testing session during which the effects of test compounds on stimulant-induced behaviors (total distance traveled, rearing and stereotypy) were measured. A reduction in total distance traveled relative to the vehicle+AMPH condition indicates an antimanic/antipsychotic drug-like response.

Structure (SMILES)	Delta T ([…]T) ([1]; 10 mg/kg PO)	Delta T ([…]T) ([1]; 30 mg/kg PO)	Potency: minimal effective dose (MED), binned [2]	AD: ADHD (probability of activity signature) [2]	AG: analgesic (probability of activity signature) [2]	AX: anxiolytic (probability of activity signature) [2]	CE: cognitive enhancer (probability of activity signature) [2]	DP: anti-depressant (probability of activity signature) [2]	MS: mood stabilizer (probability of activity signature) [2]	PS: anti-psychotic (probability of activity signature) [2]	SD: sedative hypnotic (probability of activity signature) [2]	UN: uncharacterized CNS activity (probability of activity signature) [2]	Marbles Buried ([3]; 3 mg/kg (i.p.))	Marbles Buried ([3]; 10 mg/kg (i.p.))	Mean Total Time Immobile [4]	Effect on Pre-Pulse Inhibition (PPI) [5]	Marbles Buried ([3]; 3 mg/kg (p.o.))	Total Distance Traveled [6]	Delta T ([…]T) ([1]; 3 mg/kg PO)
Cc1cccc2c1[C@@H](N)[C@@H](C)OC2 (single isomer, unassigned) [Example 170]	+	+	A (≤3 mpk)	+ (LOQ ≤ + <5%)	++ (5% ≤ ++ <25%)	++ (5% ≤ ++ <25%)	++ (5% ≤ ++ <25%)	++ (5% ≤ ++ <25%)	+ (LOQ ≤ + <5%)	++ (5% ≤ ++ <25%)	+ (LOQ ≤ + <5%)	++++ (50% ≤ ++++)	−	+					
Cc1ccc2c(c1)[C@H](N)COC2 [Compound 123]															−	−	−	#	
Cc1ccc2c(c1)[C@@H](N)COC2 [Compound 124]															−	−	−	−	
Cc1ccc2c(c1)[C@H](N)[C@H](C)OC2 [Example 157]	+	+	A (≤3 mpk)	+ (LOQ ≤ + <5%)	++ (5% ≤ ++ <25%)	++ (5% ≤ ++ <25%)	++ (5% ≤ ++ <25%)	++ (5% ≤ ++ <25%)	++ (5% ≤ ++ <25%)	+++ (25% ≤ +++ <50%)	+ (LOQ ≤ + <5%)	++++ (50% ≤ ++++)	−	+					+
